IC50 data for 43 molecules are collected here from patent US8907098B2, “Inhibitors of sphingosine kinase” (MERCK PATENT GmbH, priority 2009, dated 2014).

The structures appear in SMILES notation. pIC50: −log10 of the molar value. Bounds are passed on as bounds.

Usually pIC50 stands for the IC50 on a negative log10 scale, so that one unit is a factor of ten.

Sequence of modified SphK1 (Q9NYA1 whole entry): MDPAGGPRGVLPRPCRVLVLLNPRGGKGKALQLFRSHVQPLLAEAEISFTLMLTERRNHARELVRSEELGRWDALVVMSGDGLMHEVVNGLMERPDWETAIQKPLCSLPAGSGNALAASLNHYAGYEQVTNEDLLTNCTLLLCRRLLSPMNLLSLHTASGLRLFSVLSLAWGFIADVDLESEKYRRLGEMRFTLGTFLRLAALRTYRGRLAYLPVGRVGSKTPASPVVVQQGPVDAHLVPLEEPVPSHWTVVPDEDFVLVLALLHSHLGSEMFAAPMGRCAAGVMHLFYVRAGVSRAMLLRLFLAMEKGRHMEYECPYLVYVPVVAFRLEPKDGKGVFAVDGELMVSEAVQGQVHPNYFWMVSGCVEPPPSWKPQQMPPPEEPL

This test has as its target modified SphK1 (Homo sapiens, UniProt Q9NYA1). The test can be described thus: SphK1 biochemical kinase assay (384-well flashplate). Conditions: IC50 ranges; 5 nM modified SphK1, 1 μM ATP, 30° C., 120 min; read-out: SphK1 Inhibition IC50. As for the experimental part:
The kinase assay is carried out as a 384-well flashplate assay.
5 nM modified SphK1, 800 nM omega-biotinyl-D-erythro-sphingosine and 1 μM ATP (with 0.3 μCi of ^33P-ATP/well) are incubated in a total volume of 50 μl (25 mM HEPES, 5 mM MgCl2, 1 mM dithiothreitol, 0.01% of Brij35, 0.1% of BSA (fatty acid-free), pH 7.4) without or with test substance (5-10 concentrations) at 30° C. for 120 min. The reaction is terminated using 25 μl of 200 mM EDTA solution, filtered off with suction at room temperature after 30 min, and the cavities are washed 3 times with 100 μl of 0.9% NaCl solution. The non-specific proportion of the kinase reaction (blank) is determined using 0.5 mM NaCl. Radioactivity is measured in topcount. IC50 values are calculated using RS1.
On to `CC1(C)CCC(C)(C)c2cc(-c3csc(N4CCC(N(CCO)CCO)CC4)n3)ccc21` [2-((2-Hydroxyethyl)-{1-[4-(5,5,8,8-tetramethyl-5,6,7,8-tetrahydronaphthalen-2-yl)thiazol-2-yl]piperidin-4-yl}amino)ethanol], for which the pIC50 was 6.00 to 7.00.

`CC1(C)CCC(C)(C)c2cc(-c3csc(N4CCN(CCCO)CC4)n3)ccc21`: the pIC50 is 6.00 to 7.00. For `CC1(C)CCC(C)(C)c2cc(-c3csc(N4CC[C@@H](N)C4)n3)ccc21`, the negative logarithm of the IC50 (pIC50) is 6.00 to 7.00. The figure for `CC1(C)CCCc2cc(-c3csc(N4CCC(N(CCO)CCO)CC4)n3)ccc21` is 6.00 to 7.00; for `CC1(C)CCCc2cc(-c3csc(C4CCN(CCCCCO)C4)n3)ccc21` (stereo not shown) it is 6.00 to 7.00; for `CC1(C)CCCc2cc(-c3csc(C4CCN(CCCCO)C4)n3)ccc21` (stereo not shown) [4-{3-[4-(5,5-Dimethyl-5,6,7,8-tetrahydronaphthalen-2-yl)thiazol-2-yl]-pyrrolidin-1-yl}butan-1-ol] it is 6.00 to 7.00. The figure for `CC1(C)CCC(C)(C)c2cc(-c3csc(N4CCC(N5CCOCC5)CC4)n3)ccc21` is less than 6.00; for `CC1(C)CCC(C)(C)c2cc(-c3csc(N4CCNCC4)n3)ccc21` [1-[4-(5,5,8,8-Tetramethyl-5,6,7,8-tetrahydronaphthalen-2-yl)thiazol-2-yl]piperazine] it is 6.00 to 7.00.

For `CN1CCN(C2CCN(c3nc(-c4ccc5c(c4)C(C)(C)CCC5(C)C)cs3)CC2)CC1` [1-Methyl-4-{1-[4-(5,5,8,8-tetramethyl-5,6,7,8-tetrahydronaphthalen-2-yl)thiazol-2-yl]piperidin-4-yl}piperazine], the pIC50 is 6.00 to 7.00.

Turning to `CC1(C)CCC(C)(C)c2cc(-c3csc(N4CCC(CCN)CC4)n3)ccc21`, the pIC50 is 6.00 to 7.00. In the case of `CC1(C)CCC(C)(C)c2cc(-c3csc(N4CCC(N)CC4)n3)ccc21` [1-[4-(5,5,8,8-Tetramethyl-5,6,7,8-tetrahydronaphthalen-2-yl)thiazol-2-yl]piperidin-4-ylamine], the negative logarithm of the IC50 (pIC50) was 6.00 to 7.00. The value for `CC(=O)NC1CCN(C2CCN(c3nc(-c4ccc5c(c4)C(C)(C)CCC5(C)C)cs3)CC2)C1` (stereo not shown) was more than 7.00. The value for `CC1(C)CCC(C)(C)c2cc(-c3csc(N4CCC(NCCCO)CC4)n3)ccc21` was more than 7.00; that for `CC1(C)CCC(C)(C)c2cc(-c3csc(N4CCC(NC[C@@H](N)CO)CC4)n3)ccc21` was 6.00 to 7.00.

Regarding `CC1(C)CCCc2cc(-c3csc(N4CCNCC4)n3)ccc21` [1-[4-(5,5-Dimethyl-5,6,7,8-tetrahydronaphthalen-2-yl)thiazol-2-yl]-piperazine], the pIC50 was 6.00 to 7.00. As for `Cn1cncc1CNC1CCN(c2nc(-c3ccc4c(c3)C(C)(C)CCC4(C)C)cs2)CC1` [(3-Methyl-3H-imidazol-4-ylmethyl)-{1-[4-(5,5,8,8-tetramethyl-5,6,7,8-tetrahydronaphthalen-2-yl)thiazol-2-yl]piperidin-4-yl}amine], the negative-log IC50 (pIC50) is 6.00 to 7.00. The value for `CC1(C)CCC(C)(C)c2cc(-c3csc(N4CCC(C5CCNCC5)CC4)n3)ccc21` [1-[4-(5,5,8,8-Tetramethyl-5,6,7,8-tetrahydronaphthalen-2-yl)thiazol-2-yl]-4,4′-bipiperidinyl] was 6.00 to 7.00.

With `CC1(C)CCc2cc(-c3csc(N4CCC(NCCO)CC4)n3)ccc21` [2-{1-[4-(1,1-Dimethylindan-5-yl)thiazol-2-yl]piperidin-4-ylamino}ethanol], the negative logarithm of the IC50 (pIC50) was 6.00 to 7.00. The value for `CC1(C)CCC(C)(C)c2cc(-c3csc(N4CCN(CCO)CC4)n3)ccc21` was 6.00 to 7.00; that for `CC1(C)CCC(C)(C)c2cc(-c3csc(N4CCC(N5CCC(N)C5)CC4)n3)ccc21` (stereo not shown) was 6.00 to 7.00. The value for `CC1(C)CCC(C)(C)c2cc(-c3csc(N4CCC(NCc5c[nH]cn5)CC4)n3)ccc21` [(1H-Imidazol-4-ylmethyl)-{1-[4-(5,5,8,8-tetramethyl-5,6,7,8-tetrahydronaphthalen-2-yl)thiazol-2-yl]piperidin-4-yl}amine] was more than 7.00; that for `CC1(C)CCC(C)(C)c2cc(-c3csc(C4CCCN(CCO)C4)n3)ccc21` (stereo not shown) was 6.00 to 7.00. The figure for `CC1(C)CCC(C)(C)c2cc(-c3csc(C4CCCNC4)n3)ccc21` (stereo not shown) [3-[4-(5,5,8,8-Tetramethyl-5,6,7,8-tetrahydronaphthalen-2-yl)thiazol-2-yl]piperidine] is 6.00 to 7.00; for `CC1(C)CCC(C)(C)c2cc(-c3csc(N4CCC(NCC(O)CO)CC4)n3)ccc21` (stereo not shown) it is more than 7.00. Regarding `CC1(C)CCC(C)(C)c2cc(-c3csc(N4CCC(N5CCCC(O)C5)CC4)n3)ccc21` (stereo not shown) [1′-[4-(5,5,8,8-Tetramethyl-5,6,7,8-tetrahydronaphthalen-2-yl)thiazol-2-yl]-1,4′-bipiperidinyl-3-ol], the pIC50 is 6.00 to 7.00. For the molecule `CC(=O)N1CCC(c2csc(-c3ccc4c(c3)C(C)(C)CCC4(C)C)n2)CC1`, the pIC50 was 6.00 to 7.00.

Take `CC1(C)CCC(C)(C)c2cc(-c3csc(N4CCC(NC[C@@H](O)CO)CC4)n3)ccc21`: the pIC50 is 6.00 to 7.00. The figure for `CC1(C)CCC(C)(C)c2cc(-c3csc(N4CCCC(C(=O)NCCO)C4)n3)ccc21` (stereo not shown) is 6.00 to 7.00; for `CC1(C)CCCc2cc(-c3csc(N4CCN(CCCCO)CC4)n3)ccc21` it is 6.00 to 7.00.

With `CC1(C)CCC(C)(C)c2cc(-c3csc(C4CCCN(CCCCO)C4)n3)ccc21` (stereo not shown), the negative-log IC50 (pIC50) is less than 6.00.

Regarding `CC1(C)CCC(C)(C)c2cc(-c3ncc(C4CCNCC4)o3)ccc21` [4-[2-(5,5,8,8-Tetramethyl-5,6,7,8-tetrahydronaphthalen-2-yl)oxazol-5-yl]piperidine], the pIC50 is less than 6.00. Turning to `CC1(C)CCC(C)(C)c2cc(-c3csc(C4CCC(N)CC4)n3)ccc21` (stereo not shown), the pIC50 was 6.00 to 7.00. The value for `CC1(C)CCC(C)(C)c2cc(-c3csc(N4CCC(N)C4)n3)ccc21` (stereo not shown) [1-[4-(5,5,8,8-Tetramethyl-5,6,7,8-tetrahydronaphthalen-2-yl)thiazol-2-yl]pyrrolidin-3-ylamine] was 6.00 to 7.00. For the molecule `CC1(C)CCC(C)(C)c2cc(-c3csc(C4CCCN(CCCCCO)C4)n3)ccc21` (stereo not shown), the pIC50 was less than 6.00. The figure for `CC1(C)CCC(C)(C)c2cc(-c3csc(C4CCCN(CCCO)C4)n3)ccc21` (stereo not shown) is less than 6.00; for `CC1(C)CCC(C)(C)c2cc(-c3csc(N4CCC(NCCO)CC4)n3)ccc21` it is more than 7.00.

Regarding `CC1(C)CCC(C)(C)c2cc(-c3csc(N4CCC(CN)CC4)n3)ccc21`, the negative logarithm of the IC50 (pIC50) is 6.00 to 7.00. Regarding `CC1(C)CCC(C)(C)c2cc(-c3csc(N4CC[C@@H](NCCO)C4)n3)ccc21`, the pIC50 is less than 6.00. Regarding `CC1(C)CCC(C)(C)c2cc(-c3csc(C4CCNC4)n3)ccc21` (stereo not shown) [2-Pyrrolidin-3-yl-4-(5,5,8,8-tetramethyl-5,6,7,8-tetrahydronaphthalen-2-yl)thiazole], the negative logarithm of the IC50 (pIC50) was 6.00 to 7.00. The value for `CC1(C)CCCc2cc(-c3csc(N4CCC(N)CC4)n3)ccc21` was 6.00 to 7.00; that for `CC1(C)CCC(C)(C)c2cc(-c3csc(N4CCC(N5CCN(CCO)CC5)CC4)n3)ccc21` was 6.00 to 7.00. The value for `CC1(C)CCCc2cc(-c3csc(C4CCNC4)n3)ccc21` (stereo not shown) [4-(5,5-Dimethyl-5,6,7,8-tetrahydronaphthalen-2-yl)-2-pyrrolidin-3-yl-thiazole] was 6.00 to 7.00; that for `CC1(C)CCC(C)(C)c2cc(-c3csc(N4CCCC(CCO)C4)n3)ccc21` (stereo not shown) was 6.00 to 7.00.
